Data taken from patent US8399683B2 (TetraLogic Pharmaceuticals, priority 2008, dated 2013).

Tests used:
[1] = system: SK-OV-3 cells; assay: Growth inhibition of ovarian cancer cell line SK-OV-3 (MTT assay, cell survival); format: cell-based; conditions: Homo sapiens, drug concentration that results in 50% cell survival, 72 hrs incubation, reported as ranges
Procedure, shortened: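 After overnight seeding in McCoy's medium with 10% FBS, SK-OV-3 cells were exposed to compound at 0.003-10 μM for 72 hrs at 37° C. MTT was then added for 3 h, with DMSO solubilization and OD read at 535 nm. CC50 is the concentration giving 50% survival relative to untreated control, reported as ranges.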

[2] = target: cIAP-1 BIR-3 (Homo sapiens, UniProt Q13490); assay: Fluorescence polarization binding affinity to cIAP-1 BIR-3 (competition with AbuRPF-K(5-Fam)-NH2); conditions: 5 nM labeled peptide, 40 nM BIR3, 15 min at RT, pH 7.5; reported as ranges; read-out: KD (c-IAP-1 BIR3)
Chain of cIAP-1 BIR-3 (Q13490 266-352 limits assumed): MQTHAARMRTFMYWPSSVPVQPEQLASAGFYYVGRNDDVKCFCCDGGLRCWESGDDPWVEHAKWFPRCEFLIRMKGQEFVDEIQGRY
Procedure, shortened: (§1)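 Test peptides at varied concentrations competed with 5 nM fluorescent Smac-mimetic tracer for 40 nM BIR3 domain, 15 min at RT in 0.1M potassium phosphate pH 7.5 with […] bovine g-globulin. Polarization (mP) read at 485/520 nm; KD reported in bins (A=<0.1 μM, B=0.1–1 μM, C>1–10 μM, D=>10 μM).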

[3] = target: T1, XIAP BIR-3 (Homo sapiens, UniProt P98170); assay: Fluorescence polarization binding affinity to XIAP BIR-3 (competition with AbuRPF-K(5-Fam)-NH2); conditions: 5 nM labeled peptide, 40 nM BIR3, 15 min at RT, pH 7.5; reported as ranges
T1 construct: 40 nM of the respective IAP BIR3
T1 sequence (P98170 241-356 limits assumed): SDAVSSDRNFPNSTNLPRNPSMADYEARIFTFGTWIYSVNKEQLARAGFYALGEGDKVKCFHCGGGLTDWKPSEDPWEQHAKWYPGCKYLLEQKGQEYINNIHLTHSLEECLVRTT
Procedure, shortened: as §1

Structure (SMILES) | Kd [2] [nM] | Kd [3] [nM] | CC50 [1] [nM]
CN[C@@H](C)C(=O)N[C@H](C(=O)N1CC[C@H]2NC[C@@H](c3c[nH]c4ccccc34)[C@H]21)[C@@H](C)OC [Example 89] | 100 to 1000 | > 10000 | > 10000
CN[C@@H](C)C(=O)N[C@H](C(=O)N1CC[C@@H]2[C@H]1[C@H](c1c[nH]c3cc(F)ccc13)CN2C(C)=O)C1CCCCC1 [Example 96] | 100 to 1000 | 1000 to 10000 | 1000 to 10000
CN[C@@H](C)C(=O)N[C@H](C(=O)N1CC[C@@H]2[C@H]1[C@@H](c1c[nH]c3ccccc13)CN2C1CCCCC1)[C@@H](C)OC [Example 97] | 100 to 1000 | 1000 to 10000 | 100 to 1000
CN[C@@H](C)C(=O)N[C@H](C(=O)N1CC[C@@H]2[C@H]1[C@@H](c1c[nH]c3ccccc13)CN2C(C)C)C1CCCCC1 [Example 98] | 100 to 1000 | 1000 to 10000 | 100 to 1000
CN[C@@H](C)C(=O)N[C@H](C(=O)N1CC[C@@H]2[C@H]1[C@@H](c1c[nH]c3cc(F)ccc13)CN2Cc1ccccc1)[C@@H](C)O [Example 101] | < 100 | 100 to 1000 | 100 to 1000
CN[C@@H](C)C(=O)N[C@@H](COC)C(=O)N1CC[C@@H]2[C@H]1[C@@H](c1c[nH]c3cc(F)ccc13)CN2Cc1ccccc1 [Example 102] | 100 to 1000 | 1000 to 10000 | 1000 to 10000
CN[C@@H](C)C(=O)N[C@@H](CO)C(=O)N1CC[C@@H]2[C@H]1[C@@H](c1c[nH]c3cc(F)ccc13)CN2Cc1ccccc1 [Example 103] | 100 to 1000 | 1000 to 10000 | 1000 to 10000
CN[C@@H](C)C(=O)N[C@H](C(=O)N1CC[C@@H]2[C@H]1[C@@H](c1c[nH]c3cc(F)ccc13)CN2Cc1ccccc1)C(C)(C)C [Example 104] | < 100 | < 100 | < 100
CN[C@@H](C)C(=O)N[C@H](C(=O)N1CC[C@@H]2[C@H]1[C@@H](c1c[nH]c3cc(F)ccc13)CN2Cc1ccccc1)C(C)C [Example 105] | < 100 | 100 to 1000 | < 100
CC[C@H](NC(=O)[C@H](C)NC)C(=O)N1CC[C@@H]2[C@H]1[C@H](c1c[nH]c3cc(F)ccc13)CN2Cc1ccccc1 [Example 106] | 100 to 1000 | > 10000 | 1000 to 10000
CN[C@@H](C)C(=O)N[C@H](C(=O)N1CC[C@@H]2[C@H]1[C@@H](c1c[nH]c3cc(F)ccc13)CN2Cc1ccccc1)C1CCCCC1 [Example 107] | < 100 | < 100 | 100 to 1000
CN[C@@H](C)C(=O)N[C@H](C(=O)N1CC[C@@H]2[C@H]1CCN2C(=O)OCc1ccccc1)C1CCCCC1 [Example 108, 4-[2-Cyclohexyl-2-(2-methylamino-propionylamino)-acetyl]hexahydro-pyrrolo[3,2-b]pyrrole-1-carboxylic acid benzyl ester] | < 100 | 1000 to 10000 | 100 to 1000
CN[C@@H](C)C(=O)N[C@H](C(=O)N1CC[C@H]2NCC[C@H]21)C1CCCCC1 [Example 109, N-[1-Cyclohexyl-2-(hexahydro-pyrrolo[3,2-b]pyrrol-1-yl)-2-oxo-ethyl]-2-methylamino-propionamide] | 100 to 1000 | 1000 to 10000 | > 10000
CNC(C)C(=O)NC(C(=O)N1CCC2C1CCN2C(=O)C(NC(=O)C(C)NC)C1CCCCC1)C1CCCCC1 (stereo not drawn) [Example 110, N-(1-Cyclohexyl-2-{4-[2-cyclohexyl-2-(2-methylamino-propionylamino)-acetyl]-hexahydro-pyrrolo[3,2-b]pyrrol-1-yl}-2-oxo-ethyl)-2-methylamino-propionamide] | < 100 | 1000 to 10000 | 1000 to 10000
CNC(C)C(=O)NC(C(=O)N1CC(c2c[nH]c3cc(F)ccc23)C2C1CCN2C(=O)C(NC(=O)C(C)NC)C1CCCCC1)C1CCCCC1 (stereo not drawn) [Example 111, N-{1-Cyclohexyl-2-[4-[2-cyclohexyl-2-(2-methylamino-propionylamino)-acetyl]-6-(6-fluoro-1H-indol-3-yl)-hexahydro-pyrrolo[3,2-b]pyrrol-1-yl]-2-oxo-ethyl}-2-methylamino-propionamide] | < 100 | < 100 | < 100

The next lines start with results.

Kd [2] [nM] | Kd [3] [nM] | Structure (SMILES) | CC50 [1] [nM]
< 100 | < 100 | CN[C@@H](C)C(=O)N[C@H](C(=O)N1CC[C@H]2NC[C@H](c3c[nH]c4ccccc34)[C@H]21)[C@@H](C)OC [Example 90] | 1000 to 10000
< 100 | < 100 | CN[C@@H](C)C(=O)N[C@H](C(=O)N1CC[C@H]2NC[C@H](c3cn(Cc4ccccc4)c4cc(F)ccc34)[C@H]21)C1CCCCC1 [Example 91] | 100 to 1000
< 100 | < 100 | C[C@H](N)C(=O)N[C@H](C(=O)N1CC[C@H]2NC[C@H](c3cn(Cc4ccccc4)c4cc(F)ccc34)[C@H]21)C1CCCCC1 [Example 92] | 1000 to 10000
< 100 | < 100 | CO[C@H](C)[C@H](NC(=O)[C@H](C)N)C(=O)N1CC[C@H]2NC[C@H](c3cn(Cc4ccccc4)c4cc(F)ccc34)[C@H]21 [Example 93] | 1000 to 10000
< 100 | < 100 | CC(=O)N1C[C@H](c2c[nH]c3cc(F)ccc23)[C@@H]2[C@H]1CCN2C(=O)[C@@H](NC(=O)[C@H](C)N)C1CCCCC1 [Example 94] | 1000 to 10000
< 100 | < 100 | CN[C@@H](C)C(=O)NC(C)C(=O)N1CC[C@@H]2[C@H]1[C@@H](c1c[nH]c3cc(F)ccc13)CN2C(C)=O (stereo partly drawn) [Example 95] | 100 to 1000
< 100 | < 100 | CN[C@@H](C)C(=O)N[C@H](C(=O)N1CC[C@@H]2[C@H]1[C@@H](c1c[nH]c3cc(F)ccc13)CN2C(=O)OCc1ccccc1)C1CCCCC1 [Example 99] | < 100
< 100 | < 100 | CN[C@@H](C)C(=O)N[C@H](C(=O)N1CC[C@@H]2[C@H]1[C@@H](c1c[nH]c3cc(F)ccc13)CN2Cc1ccccc1)[C@@H](C)OC [Example 100] | < 100
